Source: publication PMC6240685, “Strong Inhibitory Effect, Low Cytotoxicity and High Plasma Stability of Steroidal Inhibitors of N-Methyl-D-Aspartate Receptors With C-3 Amide Structural Motif” (Frontiers in Pharmacology, 2018)
Like-named read-outs stand apart in the source and are kept apart here.

How the values were obtained:
GluN1/GluN2B receptors = biological target: T1, GluN1/GluN2B receptors (Rattus norvegicus, UniProt P35439+Q00960); test: Patch-clamp inhibition of glutamate responses of GluN1/GluN2B receptors in transfected HEK293 cells; assay type: cell-based
T1 construct: expressed in transfected cells; host or cells: HEK293

AMPARs = test: Inhibition of native AMPAR responses in cultured hippocampal neurons; assay type: cell-based, rat; settings: cyclothiazide 10 μM
Protocol: FIGURE 8 The effect of compound 6 on peak and steady-state responses of native NMDARs, AMPARs, and GABARs. (A) Examples of traces obtained from cultured hippocampal neurons. […] Error bars represent SD from five independent measurements. Asterisks mark significance at the level of P < 0.05 (Paired t-test).
FIGURE 9 The effect of compound 6 on native NMDARs, AMPARs, and GABARs. (A) Example of traces obtained from cultured hippocampal neurons. Compound 6 (10 or 30 μM) was co-applied with NMDA (100 μM), AMPA (100 μM), and GABA (5 μM) (duration of agonist and steroid application is indicated by filled and open bars, respectively). […]
Electrophysiological experiments were performed on HEK293 cells transfected with plasmids encoding rat GluN1-1a/GluN2A-D and GFP genes as described previously, ([Petrovic et al., 2005]; [Cais et al., 2008]; [Korinek et al., 2010]) or on primary hippocampal neurons prepared from P0–P1 rats, plated on collagen/poly-D-lysine-coated glass coverslips at a density of ∼50,000 cells/cm^2, and grown in Neurobasal A medium with B27 Supplement (Gibco). […] Agonist-induced responses were low-pass filtered at 2 kHz, digitally sampled at 5 kHz, and analyzed with pClamp software version 10.5 (Molecular Devices). […] Action potentials were recorded in the current-clamp mode from primary hippocampal mass-culture neurons at 14–15 days in vitro. […]

[1] = Plasma stability, human plasma; assay type: in vitro ADME; settings: human, plasma
Protocol: Then, 37.8 μL of stock solution was added to 1400 μL of human plasma, maintained at 37°C. Aliquots (50 μL) withdrawn at 0, 1, 4, 8, and 24 h were analyzed by HPLC. […] The supernatant was transferred to an autosampler vial and 1 μL was injected onto LC-MS system. The samples were analyzed with an Agilent 1260 HPLC (Agilent Technologies) coupled to ESI-TOF Agilent 6530 (Agilent Technologies) with Agilent Jet Stream Technology. Samples were separated on a Waters ACQUITY UPLC CSH Phenyl-Hexyl (100 × 2.1, 130 Å, 1.7 μm) at a flow rate 0.3 ml/min. […] The mass spectrometry instrument was operated in a negative ion mode with a voltage of +3.00 kV applied to the capillary. The temperature, the flow rate of the nitrogen drying gas, the pressure of the nitrogen nebulizing gas, and the flow rate of the sheath gas were set at 325°C, 10 l/min, 40 psi, 390°C, and 11 l/min, respectively. Results are represented as a percentage of a compound remaining in spiked human plasma.

T1 sequence (Q00960 27-1482, other chains not shown): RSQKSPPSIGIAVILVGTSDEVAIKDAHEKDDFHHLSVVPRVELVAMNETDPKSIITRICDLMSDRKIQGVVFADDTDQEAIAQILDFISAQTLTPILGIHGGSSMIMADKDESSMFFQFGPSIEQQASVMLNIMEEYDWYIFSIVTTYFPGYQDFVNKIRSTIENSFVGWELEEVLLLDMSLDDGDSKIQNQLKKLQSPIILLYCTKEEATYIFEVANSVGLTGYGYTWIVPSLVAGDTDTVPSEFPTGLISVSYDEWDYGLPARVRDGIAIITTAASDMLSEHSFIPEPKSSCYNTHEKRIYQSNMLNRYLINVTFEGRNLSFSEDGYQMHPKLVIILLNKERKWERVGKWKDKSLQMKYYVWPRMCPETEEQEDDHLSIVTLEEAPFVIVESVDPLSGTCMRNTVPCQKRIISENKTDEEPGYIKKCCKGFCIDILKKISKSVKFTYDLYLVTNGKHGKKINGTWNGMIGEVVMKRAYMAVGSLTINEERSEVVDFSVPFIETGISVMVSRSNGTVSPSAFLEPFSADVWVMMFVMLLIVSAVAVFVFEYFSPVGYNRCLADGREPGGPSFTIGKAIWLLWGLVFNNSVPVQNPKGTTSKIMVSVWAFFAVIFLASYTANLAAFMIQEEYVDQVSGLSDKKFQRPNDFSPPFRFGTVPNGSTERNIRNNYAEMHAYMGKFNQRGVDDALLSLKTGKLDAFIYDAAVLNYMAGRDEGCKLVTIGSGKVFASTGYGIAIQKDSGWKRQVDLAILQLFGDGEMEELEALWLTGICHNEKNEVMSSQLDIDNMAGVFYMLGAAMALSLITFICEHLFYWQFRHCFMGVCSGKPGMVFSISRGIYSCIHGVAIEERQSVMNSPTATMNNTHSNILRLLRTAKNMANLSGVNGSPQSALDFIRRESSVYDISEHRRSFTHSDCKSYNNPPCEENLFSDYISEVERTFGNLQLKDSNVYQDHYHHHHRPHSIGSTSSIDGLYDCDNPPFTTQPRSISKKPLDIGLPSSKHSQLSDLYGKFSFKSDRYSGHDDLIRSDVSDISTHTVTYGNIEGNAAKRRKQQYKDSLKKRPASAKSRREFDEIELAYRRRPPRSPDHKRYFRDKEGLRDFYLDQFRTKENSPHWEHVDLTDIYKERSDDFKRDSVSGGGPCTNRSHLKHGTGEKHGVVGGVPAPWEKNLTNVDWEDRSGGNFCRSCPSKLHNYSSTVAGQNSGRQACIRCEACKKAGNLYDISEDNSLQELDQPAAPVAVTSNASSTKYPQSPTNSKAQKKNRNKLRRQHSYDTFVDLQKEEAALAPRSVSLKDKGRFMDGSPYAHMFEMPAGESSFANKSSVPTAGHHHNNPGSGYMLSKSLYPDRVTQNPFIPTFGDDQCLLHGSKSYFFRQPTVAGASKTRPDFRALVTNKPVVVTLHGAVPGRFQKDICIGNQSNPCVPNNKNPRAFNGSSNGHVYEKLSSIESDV

Question: What does the source list for C[C@@]12CCC[C@H]1[C@@H]1CC[C@@H]3C[C@H](NC(=O)[C@@H](N)CC(=O)O)CC[C@]3(C)[C@H]1CC2 [Compound 6, (S)-3-amino-4-(((3R,5R,8S,9S,10S,13S,14S)-10,13-dimethylhexadecahydro-1H-cyclopenta[a]phenanthren-3-yl)amino)-4-oxobutanoic acid]?
Answer: ΔGexp (GluN1/GluN2B receptors): -7.29 kcal/mol; h ± SD (apparent Hill coefficient) (GluN1/GluN2B receptors; 1 mM glutamate and 10 μM glycine): 1.3 ± 0.1; IC50 (GluN1/GluN2B receptors; as repeated in Table 2, read-out: IC50): 4.8 µM; IC50 (GluN1/GluN2B receptors; concentration-response, 1 mM glutamate and 10 μM glycine, read-out: IC50 ±SD): 7.4 ± 0.8 µM; IC50 (GluN1/GluN2B receptors; current responses to glutamate, HEK293, IC50 from single steroid dose, Hill coefficient fixed at 1.2, read-out: IC50 ± SD): 4.8 ± 0.9 µM; effect on amplitude of AMPA-induced responses (AMPARs; AMPA 100 μM): only little affected; potency estimated from few doses (AMPARs; estimated from single dose (30 μM), Hill coefficient fixed at 1.2, 100 μM AMPA, read-out: IC50 at AMPAR responses (estimate)): 276 ± 179 µM; remaining at 8 h, 42.1 μg/mL [1]: 100%
